Source: PubChem BioAssay AID743340 (Broad Institute, 2014)
Results filed as inconclusive are left out. Activity calls are given as the source filed them.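 How the source made its calls: active means compounds whose fitted AC50 for signal loss is at most twice the top valid dose tested; inconclusive means flat curve with 30 to 70% inhibition, or poor fit; inactive means the rest.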

Target: Leucyl-cystinyl aminopeptidase (Mus musculus) (UniProt Q8C129)
Assay: IRAP inhibitors, dose response, selectivity assay for ERAP1 modulator project, biochemical, Leu-AMC fluorescence, cherry-picked samples, set 2 (AID 743340)
Details: purified IRAP, Leu-AMC cleavage fluorescence, 1 h

Leucyl-cystinyl aminopeptidase (Mus musculus), sequence (Q8C129 whole entry, looked up): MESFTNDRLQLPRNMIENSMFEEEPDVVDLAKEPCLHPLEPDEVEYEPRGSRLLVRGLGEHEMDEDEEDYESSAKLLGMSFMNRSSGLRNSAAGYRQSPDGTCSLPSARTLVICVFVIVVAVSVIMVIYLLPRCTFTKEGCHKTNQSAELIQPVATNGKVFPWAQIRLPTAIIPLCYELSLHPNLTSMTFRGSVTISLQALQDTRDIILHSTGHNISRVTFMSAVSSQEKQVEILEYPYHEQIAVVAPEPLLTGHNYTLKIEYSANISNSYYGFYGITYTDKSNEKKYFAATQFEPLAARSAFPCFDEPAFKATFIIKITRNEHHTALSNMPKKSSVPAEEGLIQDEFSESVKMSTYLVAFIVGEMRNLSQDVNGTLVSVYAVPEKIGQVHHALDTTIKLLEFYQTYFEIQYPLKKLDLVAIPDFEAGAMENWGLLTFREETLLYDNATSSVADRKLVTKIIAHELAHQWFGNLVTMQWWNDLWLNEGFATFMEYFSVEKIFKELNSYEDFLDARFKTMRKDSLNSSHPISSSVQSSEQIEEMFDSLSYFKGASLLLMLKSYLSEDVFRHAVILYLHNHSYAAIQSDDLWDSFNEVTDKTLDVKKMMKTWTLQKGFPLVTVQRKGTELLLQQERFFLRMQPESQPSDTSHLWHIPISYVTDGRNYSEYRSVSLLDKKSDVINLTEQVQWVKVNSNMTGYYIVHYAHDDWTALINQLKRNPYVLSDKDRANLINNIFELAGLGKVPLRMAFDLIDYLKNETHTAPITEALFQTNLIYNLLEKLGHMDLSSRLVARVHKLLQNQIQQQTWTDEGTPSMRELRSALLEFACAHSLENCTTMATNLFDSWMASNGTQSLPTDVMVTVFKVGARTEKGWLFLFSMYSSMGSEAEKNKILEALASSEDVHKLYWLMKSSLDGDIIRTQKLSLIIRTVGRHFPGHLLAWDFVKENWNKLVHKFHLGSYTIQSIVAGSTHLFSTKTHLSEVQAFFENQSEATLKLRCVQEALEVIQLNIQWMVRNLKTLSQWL

Row | Structure (SMILES) | activity change, negative = inhibition (at 11 µM (top of the series)) | also measured
1 | C[C@@H]1CCCCO[C@@H](CN(C)Cc2ccc(C(=O)O)cc2)[C@H](C)CN([C@@H](C)CO)C(=O)c2cc(NS(=O)(=O)c3ccc(Cl)cc3)ccc2O1 | inactive | –
2 | COc1ccc(CN(C)C[C@@H]2OCCCC[C@@H](C)Oc3ccc(NS(=O)(=O)c4cccs4)cc3C(=O)N([C@@H](C)CO)C[C@H]2C)cc1 | inactive | –
3 | CCCN(C)C[C@@H]1OCCCC[C@@H](C)Oc2ccc(NS(=O)(=O)c3ccc(OC)cc3)cc2C(=O)N([C@H](C)CO)C[C@@H]1C | – | AC50: 11.2 µM
4 | CC(=O)N1CCN(C(=O)C2(NC(=O)Nc3ccc(C)cc3)CCCCC2)CC1 | inactive | –
5 | COC(=O)[C@H]1[C@H](CO)[C@H]2Cn3c(ccc(-c4ccncc4)c3=O)[C@H]2N1Cc1ccccc1F | inactive | –
6 | C[C@@H]1CCCCO[C@@H](CN(C)C(=O)CCC(F)(F)F)[C@@H](C)CN([C@@H](C)CO)C(=O)c2cc(NS(=O)(=O)c3ccc(Cl)cc3)ccc2O1 | – | activity change, negative = inhibition (at 5 µM (top of the series)): inactive
7 | Cc1ccccc1-c1ccc2c(c1)O[C@@H](CN(C)Cc1ccc(C(=O)O)cc1)[C@@H](C)CN([C@H](C)CO)S2(=O)=O | inactive | –
8 | C[C@@H]1CCCCO[C@H](CN(C)Cc2ccccc2)[C@H](C)CN([C@H](C)CO)C(=O)c2cc(NS(=O)(=O)c3ccccc3)ccc2O1 | inactive | –
9 | CCCNC(=O)C[C@@H]1CC[C@@H]2[C@H](COC[C@H](O)CN2C(=O)Nc2cccc(Cl)c2)O1 | inactive | –
10 | C[C@@H]1CCCCO[C@@H](CN(C)Cc2ccccc2)[C@@H](C)CN([C@H](C)CO)C(=O)c2cc(NS(=O)(=O)c3cccs3)ccc2O1 | – | activity change, negative = inhibition (at 5.6 µM (top of the series)): inactive
11 | CCCNC(=O)C[C@H]1CC[C@@H]2[C@H](COC[C@H](O)CN2C(=O)Nc2cccc(Cl)c2)O1 | inactive | –
12 | COc1ccc(NC(=O)Nc2ccc3c(c2)C(=O)N([C@@H](C)CO)C[C@@H](C)[C@H](CN(C)Cc2ccc(C(=O)O)cc2)OCCCC[C@H](C)O3)cc1 | inactive | –
13 | COc1ccc(CN(C)C[C@@H]2OCCCC[C@@H](C)Oc3ccc(NS(=O)(=O)c4cccs4)cc3C(=O)N([C@H](C)CO)C[C@H]2C)cc1 | inactive | –
14 | CNC[C@H]1OCCCC[C@@H](C)Oc2ccc(NS(=O)(=O)c3ccc(C)cc3)cc2C(=O)N([C@@H](C)CO)C[C@H]1C | inactive | –
15 | O=C(Nc1ccc(C(F)(F)F)cc1)N1[C@@H]2CNC[C@H]1C2c1ccc(-c2ccncc2)cc1 (stereo partly specified) | inactive | –
16 | O=C(C[C@H]1CC[C@H]2[C@@H](COC[C@@H](O)CN2C(=O)Nc2cccc(Cl)c2)O1)N1CCCCC1 | inactive | –
17 | C[C@@H]1CCCCO[C@@H](CN(C)C(=O)CCC(F)(F)F)[C@@H](C)CN([C@@H](C)CO)C(=O)c2cc(NS(=O)(=O)c3ccccc3)ccc2O1 | – | activity change, negative = inhibition (at 2.6 µM (top of the series)): inactive
18 | COc1ccc(CN(C)C[C@@H]2OCCCC[C@@H](C)Oc3ccc(NS(=O)(=O)c4cccs4)cc3C(=O)N([C@H](C)CO)C[C@@H]2C)cc1 | inactive | –
19 | O=C(O)c1ccccc1NS(=O)(=O)c1cccc(-n2sc3ccccc3c2=O)c1 | – | AC50: > 22 µM (inactive)
20 | CCCN(C)C[C@@H]1OCCCC[C@@H](C)Oc2ccc(NS(=O)(=O)c3c(C)noc3C)cc2C(=O)N([C@H](C)CO)C[C@@H]1C | – | AC50: > 20 µM (inactive)
21 | COc1ccc(C(=O)O)cc1S(=O)(=O)Nc1cc(C(F)(F)F)ccc1N1CCCCC1 | inactive | –
22 | COc1ccc(CN(C)C[C@H]2OCCCC[C@@H](C)Oc3ccc(NS(=O)(=O)c4cccs4)cc3C(=O)N([C@@H](C)CO)C[C@@H]2C)cc1 | inactive | –
23 | O=C(C[C@@H]1CC[C@@H]2[C@H](COC[C@H](O)CN2C(=O)Nc2cccc(Cl)c2)O1)N1CCCCC1 | inactive | –
24 | C[C@@H]1CCCCO[C@@H](CN(C)CC2CC2)[C@@H](C)CN([C@H](C)CO)C(=O)c2cc(NS(=O)(=O)c3ccc(Cl)cc3)ccc2O1 | inactive | –
25 | Cc1ccccc1-c1ccc2c(c1)O[C@@H](CN(C)Cc1ccc(C(=O)O)cc1)[C@@H](C)CN([C@@H](C)CO)S2(=O)=O | inactive | –
26 | Cc1cc(=O)oc2c(CN3CCN(C)CC3)c(O)c(Cl)cc12 | inactive | –
27 | C[C@@H]1CCCCO[C@@H](CN(C)CC2CCCCC2)[C@H](C)CN([C@@H](C)CO)C(=O)c2cc(NC(=O)Nc3ccccc3)ccc2O1 | inactive | –
28 | O=C(O)c1cccc(NC(=O)c2ccccc2NC(=O)c2cccc([N+](=O)[O-])c2)c1 | inactive | –
29 | C[C@@H]1CCCCO[C@H](CN(C)Cc2ccc(C(=O)O)cc2)[C@H](C)CN([C@@H](C)CO)C(=O)c2cc(NC(=O)Nc3ccc(C(F)(F)F)cc3)ccc2O1 | inactive | –
30 | C[C@@H]1CCCCO[C@@H](CN(C)Cc2ccc3c(c2)OCO3)[C@@H](C)CN([C@@H](C)CO)C(=O)c2cc(NS(=O)(=O)c3ccccc3)ccc2O1 | – | activity change, negative = inhibition (at 5.6 µM (top of the series)): inactive

Now from value to compound, other results behind:

Row | activity change, negative = inhibition (at 11 µM (top of the series)) | Structure (SMILES) | also measured
31 | inactive | CCC(=O)N(C)C[C@H]1Oc2ncc(C#Cc3ccncc3)cc2C(=O)N([C@H](C)CO)C[C@H]1C | –
32 | inactive | C[C@H](CO)N1C[C@H](C)[C@H](CN(C)CC2CCCCC2)Oc2c(NC(=O)Nc3ccc4c(c3)OCO4)cccc2C1=O | –
33 | inactive | Cc1noc(C)c1NC(=O)N(C)C[C@@H]1Oc2c(NC(=O)Nc3ccccc3)cccc2C(=O)N([C@H](C)CO)C[C@@H]1C | –
34 | inactive | C[C@@H]1CCCCO[C@@H](CN(C)CC2CC2)[C@@H](C)CN([C@H](C)CO)C(=O)c2cc(NS(=O)(=O)c3cccs3)ccc2O1 | –
35 | inactive | COc1ccc(NC(=O)Nc2cccc3c2O[C@H](CN(C)Cc2ccc(C(=O)O)cc2)[C@H](C)CN([C@H](C)CO)C3=O)cc1 | –
36 | inactive | C[C@H](CO)N1C[C@H](C)[C@H](CN(C)CC2CCCCC2)Oc2c(NC(=O)Nc3ccc(C(F)(F)F)cc3)cccc2C1=O | –
37 | inactive | C[C@H]1CN([C@@H](C)CO)C(=O)c2cccc(NC(=O)Nc3ccc(F)cc3)c2O[C@@H]1CN(C)C(=O)Nc1ccc2c(c1)OCO2 | –
38 | inactive | C[C@H](CO)N1C[C@H](C)[C@H](CN(C)Cc2ccc(C(=O)O)cc2)Oc2c(NC(=O)Nc3ccccc3)cccc2C1=O | –
39 | inactive | CCCN(C)C[C@@H]1OCCCC[C@@H](C)Oc2ccc(NS(=O)(=O)c3cccs3)cc2C(=O)N([C@H](C)CO)C[C@@H]1C | –
40 | inactive | Cc1noc(C)c1NC(=O)Nc1ccc2c(c1)C(=O)N([C@H](C)CO)C[C@@H](C)[C@@H](CN(C)Cc1ccc(C(F)(F)F)cc1)OCCCC[C@@H](C)O2 | –
41 | inactive | C[C@H]1CN([C@@H](C)CO)C(=O)c2cccc(NC(=O)Nc3ccc(C(F)(F)F)cc3)c2O[C@@H]1CN(C)C | –
